Columns and labels:
[1] = target: SARS-CoV-2 Main Protease (SARS-CoV-2) (UniProt P0DTD1)
[2] = target: SARS-CoV-2 Main Protease (SARS-CoV-2) (UniProt P0DTD1); remark: listed apart in the source

Row | Compound | inhibition ([1]; 20.0 µM) [%] | relative solubility at 20 uM | relative solubility at 100 uM | inhibition ([2]; 20.0 µM) [%] | inhibition ([2]; 50.0 µM) [%] | IC50 [1] [µM] | inhibition ([1]; 50.0 µM) [%]
1 | Cc1ccc(-c2cc(C(F)(F)F)nn2-c2ccc(S(N)(=O)=O)cc2)cc1 | 2.17 | 0.91 | 0.79 | 6.23 | 11.9 | – | –
2 | Cc1ccncc1NC(=O)CN1C(=O)COc2ccc(Cl)cc21 | – | 0.99 | 0.99 | 32.8 | 49.3 | 38.9 | 67.2
3 | CC(C(=O)Nc1cnccc1C)=C1CC1 | – | 1 | 1 | 2.11 | -8.02 | – | 0
4 | CN(CCNC(=O)c1cc(=O)[nH]c2ccccc12)c1ccccc1 | – | 0.91 | 0.77 | -2.32 | 19.2 | – | 8.3
5 | C=CC(=O)N(C1CCC2(CCCC2)C1)C(C(=O)NC(C)(C)C)c1cccnc1 (stereo unspecified) | 0 | 0.98 | 0.99 | 5.22 | 6.35 | – | –
6 | CN(CC1COc2ccccc2O1)C(=O)c1cc(=O)[nH]c2ccc(F)cc12 (stereo unspecified) | – | 0.99 | 0.99 | -4.21 | 1.67 | – | 0
7 | O=C(CCl)NC(CO)c1cccc(Cl)c1 (stereo unspecified) | 16 | 1 | 0.99 | – | 51.6 | – | 45.3
8 | Cc1ccncc1NC(=O)Nc1ccccc1 | 0 | 1 | 1 | – | 21.1 | – | -0.18
9 | N#Cc1cccc(NC(=O)Nc2c[nH]c3ncccc23)c1 | 0 | 1 | 0.91 | – | 47.3 | – | 19.9
10 | C=CC(=O)N(c1ccc(C(C)(C)C)cc1)C(C(=O)NC1CCCC1)c1cccnc1 (stereo unspecified) | 0 | 1.01 | 1 | -10.5 | -12.8 | – | 1.68
11 | Cc1ccncc1NC(=O)C(C)c1cccc(C#N)c1 (stereo unspecified) | 21 | 1 | 1 | 35.4 | 61.4 | 45.3 | 58.4
12 | NS(=O)(=O)c1ccc2c(c1)C(=O)C(=O)N2 | – | 1.01 | 1 | -2.6 | -3.21 | – | 37.1
13 | CC(C)c1scnc1NC(=O)C1CCOc2ccc(Cl)cc21 (stereo unspecified) | – | 1 | 0.99 | 10 | 6.85 | – | 0
14 | Cc1cc(C)c(C)c(S(=O)(=O)N2CCN(C(=O)c3cc[nH]c(=O)c3)CC2)c1C | – | 0.99 | 0.98 | -1.5 | 5.56 | – | 0
15 | CC(=O)N[C@@H](Cc1ccc(O)cc1)C(=O)NCc1ccc(Br)cc1 (stereo in doubt) | 0 | 1 | 0.99 | -20.1 | -24.8 | – | –
16 | O=C(CCl)N1CC2CC1CN2Cc1cccc(Cl)c1 (stereo unspecified) | 100 | 0.99 | 1 | 82.2 | 72.7 | 0.655 | 100
17 | O=C(NCCc1cccc2ccccc12)c1cc(=O)[nH]c2ccccc12 | – | 0.87 | 0.73 | -40.9 | 4.42 | – | 7.36
18 | CN1C(=O)/C(=N\NC(=O)c2ccc3c(c2)OCO3)c2ccccc21 | – | 0.97 | 0.75 | -16.9 | -60.6 | – | -12.8
19 | C#CCN1CCN(C(=O)C=C)CC1 | 3.23 | 1.01 | 1.01 | -18.6 | -15 | – | –
20 | C=CC(=O)N(c1ccc(C(C)(C)C)cc1)C(C(=O)NC(C)C)c1cccnc1 (stereo unspecified) | 0 | 1 | 1 | -1.73 | 0.416 | – | 0

Row | Compound | inhibition ([1]; 20.0 µM) [%] | relative solubility at 20 uM | relative solubility at 100 uM | inhibition ([2]; 20.0 µM) [%] | inhibition ([2]; 50.0 µM) [%] | IC50 [1] [µM] | inhibition ([1]; 50.0 µM) [%]
21 | Cc1ccncc1NC(=O)Cc1cc(Cl)c2c(c1)OCCO2 | – | 1 | 1 | 9.83 | 22.2 | – | 10.9
22 | Cc1ccncc1NC(=O)Cc1cccc(S(N)(=O)=O)c1 | – | 0.99 | 0.99 | 11.1 | 6.23 | – | 11.5
23 | CC(=O)N1CCN(S(=O)(=O)C2=CC[SH]=C2)CC1 | 0 | 0.99 | 1 | – | -20.6 | – | 3.62
24 | N#Cc1ccccc1S(=O)(=O)N1CCN(C(=O)c2cc(=O)[nH]c3cc(F)ccc23)CC1 | – | 0.94 | 0.95 | 1.1 | 52.4 | – | 0
25 | C=CC(=O)N(c1ccc(SC)cc1)C(C(=O)Nc1ccc(OC)cc1C)c1cccnc1 (stereo unspecified) | 0 | 0.95 | 0.84 | 8.27 | 22.2 | – | –
26 | Cc1ccnc(C)c1NC(=O)NCc1cccc(N2CCOCC2)c1 | – | 1 | 1 | 2.7 | -9.74 | – | 0
27 | O=C(NCc1cccnc1)Nc1cccc(OCC(F)F)n1 | 0 | 1 | 1 | 3.33 | 8.28 | – | 4.42
28 | CC1(C)Cc2cccc(OCCNC(=O)c3cc(=O)[nH]c4ccc(F)cc34)c2O1 | – | 0.98 | 0.84 | 13.9 | 23.7 | – | 42
29 | C=CC(=O)N(c1ccc2ncsc2c1)C(C(=O)Nc1cccc(CC)c1)c1cccnc1 (stereo unspecified) | 16.6 | 0.8 | 0.63 | 33.9 | 59.3 | 32 | –
30 | O=C(Nc1ccc(N(Cc2ccsc2)C(=O)Cn2nnc3ccccc32)cc1)C1CC1 | – | 0.9 | 0.59 | 69 | 70.2 | 28.4 | 62.2
31 | C#CCOc1ccc(N(C(=O)C=C)C(C(=O)NC(C)(C)C)c2cccnc2)cc1 (stereo unspecified) | 0 | 1 | 1 | -13.4 | -14.8 | – | –
32 | COCCc1ccc(Cl)cc1CN1CCN(C(=O)CCl)CC1 | – | 1 | 0.99 | 96.1 | 95.1 | 2.42 | 100
33 | C=CC(=O)NCc1ccc(C(C)NC(=O)OC(C)(C)C)cc1 (stereo unspecified) | 0 | 1 | 1.01 | – | 6.84 | – | 0
34 | O=C1CC(Oc2cccc(C(=O)NCc3cncnc3)c2)N1 (stereo unspecified) | – | 1 | 1 | 21.6 | 25.1 | – | 28.1
35 | O=C(Cc1c[nH]c2ncccc12)NCc1ccc(Cl)cn1 | 0 | 1 | 1 | 1.55 | 4.16 | – | –
36 | Nc1ncc(S(=O)(=O)NCc2cccc(Cl)c2)cn1 | – | 1 | 0.97 | 5.4 | -6.16 | – | 6.76
37 | O=C(Nc1nncn1C1CC1)[C@@H]1CCOc2ccc(Cl)cc21 (stereo in doubt) | – | 0.99 | 0.99 | -7.38 | 19.5 | – | -10.4
38 | N#Cc1ccc(CNC(=O)Cc2c[nH]c3ncccc23)nc1 | 0 | 1 | 1 | 4.15 | 0.616 | – | –
39 | CNC(=O)OC1CCN(S(=O)(=O)c2ccccc2)CC1 | 4.89 | 1 | 1 | – | -16.3 | – | 0

From the COVID Moonshot data (paper PMC11187573), “Identification of SARS-CoV-2 Mpro inhibitors through deep reinforcement learning for de novo drug design and computational chemistry approaches” (RSC Medicinal Chemistry, 2024)
